Data reported in paper PMC4522657, “Identification of a DYRK1A Inhibitor that Induces Degradation of the Target Kinase using Co-chaperone CDC37 fused with Luciferase nanoKAZ” (Scientific Reports, 2015).

Key:
AurA/TPX2 = molecular target: T1, AurA/TPX2 (Homo sapiens, UniProt O14965); assay: Kinase panel, CaNDY 1 µM; type: biochemical; conditions: CaNDY 1 µM relative to DMSO
T1 construct: purchased Carna Biosciences
Description: (§1) Detailed information on the assay conditions is available on the website of Carna Biosciences (http://www.carnabio.com/english/index.html; Kobe, Japan). In brief, full-length human recombinant kinases were expressed using a baculovirus expression system as amino-terminal GST-fusion proteins, and purified by glutathione-Sepharose chromatography. The GenBank accession numbers of DYRK1A, DYRK1B, DYRK2, and DYRK3 were NP_001387.2, NP_004705.1, NP_003574.1, and NP_003573.2. Kinase activities were evaluated by Off-chip Mobility Shift Assay after reaction of 1 μM of the substrate DYRKtide-F with ATP (25 μM for DYRK1A, 50 μM for DYRK1B, 10 μM for DYRK2, and 5 μM for DYRK3). For each compound, a DMSO solution was diluted in assay buffer to yield a final concentration of 1% DMSO. After incubation for one hour at room temperature, substrate phosphorylation was analyzed by electrophoretic separation of the substrate and products using a Caliper LC3000 platform (Caliper Life Sciences, Mountain View, CA, USA). The phosphorylated product (P)/(P + substrate) ratio was calculated at each concentration of each small molecule and the percent inhibition was expressed relative to a control assay in the absence of the small molecule. […] The IC50 of each compound was calculated by interpolation on a log-concentration-response curve fitted with a four-parameter logistic equation.
(§2) All kinase assays were carried out at Carna Biosciences. The inhibitory map was made with Kinome Render[36].

CHK2 = molecular target: T2, CHK2 (Homo sapiens, UniProt O96017); assay: Kinase panel, CaNDY 1 µM; type: biochemical; conditions: CaNDY 1 µM relative to DMSO
T2 construct: purchased Carna Biosciences
T2 sequence (O96017 whole entry): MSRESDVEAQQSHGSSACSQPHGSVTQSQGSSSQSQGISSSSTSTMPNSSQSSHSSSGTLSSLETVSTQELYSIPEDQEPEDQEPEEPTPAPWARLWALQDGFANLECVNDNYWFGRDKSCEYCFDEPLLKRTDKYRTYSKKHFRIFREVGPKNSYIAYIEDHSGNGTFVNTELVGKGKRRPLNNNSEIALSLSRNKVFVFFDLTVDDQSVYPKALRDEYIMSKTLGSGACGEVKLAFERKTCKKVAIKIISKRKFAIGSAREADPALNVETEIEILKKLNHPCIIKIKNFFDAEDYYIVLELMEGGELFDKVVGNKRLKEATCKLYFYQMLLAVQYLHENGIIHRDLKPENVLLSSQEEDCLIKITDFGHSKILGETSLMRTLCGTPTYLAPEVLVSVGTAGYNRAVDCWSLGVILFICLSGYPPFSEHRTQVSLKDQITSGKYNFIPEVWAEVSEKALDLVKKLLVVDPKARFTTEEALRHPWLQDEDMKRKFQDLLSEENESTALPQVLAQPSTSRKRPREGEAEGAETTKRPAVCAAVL
Description: as §1, §2

CK1ε = molecular target: T3, CK1ε (Homo sapiens, UniProt P49674); assay: Kinase panel, CaNDY 1 µM; type: biochemical; conditions: CaNDY 1 µM relative to DMSO
T3 construct: purchased Carna Biosciences
T3 sequence (P49674 whole entry): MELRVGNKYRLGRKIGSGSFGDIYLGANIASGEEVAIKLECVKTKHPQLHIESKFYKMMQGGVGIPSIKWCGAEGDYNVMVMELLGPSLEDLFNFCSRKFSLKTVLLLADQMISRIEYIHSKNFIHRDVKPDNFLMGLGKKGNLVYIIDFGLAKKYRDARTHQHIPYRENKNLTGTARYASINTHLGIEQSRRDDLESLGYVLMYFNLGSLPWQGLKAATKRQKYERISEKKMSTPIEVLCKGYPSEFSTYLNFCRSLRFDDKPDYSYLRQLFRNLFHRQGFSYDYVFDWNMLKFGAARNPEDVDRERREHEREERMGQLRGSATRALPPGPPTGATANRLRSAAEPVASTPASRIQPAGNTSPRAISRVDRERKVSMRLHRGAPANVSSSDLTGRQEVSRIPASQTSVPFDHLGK
Description: as §1, §2

NEK1 = molecular target: T4, NEK1 (Homo sapiens, UniProt Q96PY6); assay: Kinase panel, CaNDY 1 µM; type: biochemical; conditions: CaNDY 1 µM relative to DMSO
T4 construct: purchased Carna Biosciences
Description: as §1, §2

SRPK2 = molecular target: T5, SRPK2 (Homo sapiens, UniProt P78362); assay: Kinase panel, CaNDY 1 µM; type: biochemical; conditions: CaNDY 1 µM relative to DMSO
T5 construct: purchased Carna Biosciences
T5 sequence (P78362 whole entry): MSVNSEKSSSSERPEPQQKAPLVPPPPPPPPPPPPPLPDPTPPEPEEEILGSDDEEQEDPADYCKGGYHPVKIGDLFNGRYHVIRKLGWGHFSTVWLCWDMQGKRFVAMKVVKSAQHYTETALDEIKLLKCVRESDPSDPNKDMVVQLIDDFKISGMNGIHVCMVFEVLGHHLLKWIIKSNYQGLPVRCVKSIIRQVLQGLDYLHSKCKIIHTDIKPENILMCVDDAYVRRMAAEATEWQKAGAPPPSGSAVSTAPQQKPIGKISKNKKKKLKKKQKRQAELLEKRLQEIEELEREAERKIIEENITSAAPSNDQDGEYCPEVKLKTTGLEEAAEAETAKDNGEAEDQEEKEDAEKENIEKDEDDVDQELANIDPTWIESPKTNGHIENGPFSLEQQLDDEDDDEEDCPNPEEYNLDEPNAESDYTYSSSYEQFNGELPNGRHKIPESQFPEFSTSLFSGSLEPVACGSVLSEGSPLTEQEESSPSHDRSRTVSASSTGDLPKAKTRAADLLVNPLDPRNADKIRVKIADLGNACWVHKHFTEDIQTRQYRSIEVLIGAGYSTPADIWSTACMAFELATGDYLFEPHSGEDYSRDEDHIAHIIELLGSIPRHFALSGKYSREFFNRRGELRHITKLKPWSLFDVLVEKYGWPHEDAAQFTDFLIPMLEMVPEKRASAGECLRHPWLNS
Description: as §1, §2

FGFR3 = molecular target: T6, FGFR3 (Homo sapiens, UniProt P22607); assay: Kinase panel, CaNDY 1 µM; type: biochemical; conditions: CaNDY 1 µM relative to DMSO
T6 construct: purchased Carna Biosciences
T6 sequence (P22607 23-806): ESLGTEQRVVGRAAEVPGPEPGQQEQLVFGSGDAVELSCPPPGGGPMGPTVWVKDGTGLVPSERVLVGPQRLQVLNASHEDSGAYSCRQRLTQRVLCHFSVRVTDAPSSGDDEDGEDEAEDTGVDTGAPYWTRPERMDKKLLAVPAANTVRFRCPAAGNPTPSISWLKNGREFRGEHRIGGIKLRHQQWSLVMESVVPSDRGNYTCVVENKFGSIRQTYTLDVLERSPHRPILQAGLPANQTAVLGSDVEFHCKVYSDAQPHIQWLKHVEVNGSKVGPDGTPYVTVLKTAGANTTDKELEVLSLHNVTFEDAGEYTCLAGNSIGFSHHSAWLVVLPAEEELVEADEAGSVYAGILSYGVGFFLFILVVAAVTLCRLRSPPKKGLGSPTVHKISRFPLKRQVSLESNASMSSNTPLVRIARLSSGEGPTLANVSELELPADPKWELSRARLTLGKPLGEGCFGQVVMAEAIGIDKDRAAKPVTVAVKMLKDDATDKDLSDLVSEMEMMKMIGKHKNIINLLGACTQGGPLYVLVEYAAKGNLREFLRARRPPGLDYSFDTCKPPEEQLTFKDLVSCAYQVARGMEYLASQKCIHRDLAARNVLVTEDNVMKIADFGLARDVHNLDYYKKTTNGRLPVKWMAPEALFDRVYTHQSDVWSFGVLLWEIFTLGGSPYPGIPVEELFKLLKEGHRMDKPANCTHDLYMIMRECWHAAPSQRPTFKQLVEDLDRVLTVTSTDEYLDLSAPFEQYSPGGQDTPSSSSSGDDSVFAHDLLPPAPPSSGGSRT

FGFR4(N535K) = molecular target: T7, FGFR4(N535K) (Homo sapiens, UniProt P22455, N535K); assay: Kinase panel, CaNDY 1 µM; type: biochemical; conditions: CaNDY 1 µM relative to DMSO
T7 construct: purchased Carna Biosciences
T7 sequence (P22455 22-802 N535K): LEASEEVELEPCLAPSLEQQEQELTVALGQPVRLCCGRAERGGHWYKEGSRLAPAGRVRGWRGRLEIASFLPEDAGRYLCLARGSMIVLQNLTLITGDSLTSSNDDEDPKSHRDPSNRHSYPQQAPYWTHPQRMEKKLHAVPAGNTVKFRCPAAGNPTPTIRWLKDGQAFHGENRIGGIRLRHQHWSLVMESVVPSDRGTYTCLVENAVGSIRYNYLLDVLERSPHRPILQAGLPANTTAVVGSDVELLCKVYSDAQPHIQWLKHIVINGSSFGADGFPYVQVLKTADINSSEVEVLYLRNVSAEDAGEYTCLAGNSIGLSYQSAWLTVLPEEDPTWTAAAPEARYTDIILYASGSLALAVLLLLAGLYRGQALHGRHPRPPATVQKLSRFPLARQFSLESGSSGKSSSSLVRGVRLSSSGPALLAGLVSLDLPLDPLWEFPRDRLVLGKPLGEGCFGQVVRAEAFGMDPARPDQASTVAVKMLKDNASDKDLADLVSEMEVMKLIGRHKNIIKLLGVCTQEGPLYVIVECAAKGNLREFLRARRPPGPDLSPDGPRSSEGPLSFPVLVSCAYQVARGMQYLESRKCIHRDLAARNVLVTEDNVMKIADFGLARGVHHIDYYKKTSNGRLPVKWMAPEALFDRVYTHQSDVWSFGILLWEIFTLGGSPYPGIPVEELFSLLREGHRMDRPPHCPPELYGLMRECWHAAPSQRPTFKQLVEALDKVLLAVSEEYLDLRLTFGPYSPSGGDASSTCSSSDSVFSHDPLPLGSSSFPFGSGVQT

SYK = molecular target: T8, SYK (Homo sapiens, UniProt P43405); assay: Kinase panel, CaNDY 1 µM; type: biochemical; conditions: CaNDY 1 µM relative to DMSO
T8 construct: purchased Carna Biosciences

PIM1 = molecular target: T9, PIM1 (Homo sapiens, UniProt P11309); assay: Kinase panel, CaNDY 1 µM; type: biochemical; conditions: CaNDY 1 µM relative to DMSO
T9 construct: purchased Carna Biosciences
T9 sequence (P11309 whole entry): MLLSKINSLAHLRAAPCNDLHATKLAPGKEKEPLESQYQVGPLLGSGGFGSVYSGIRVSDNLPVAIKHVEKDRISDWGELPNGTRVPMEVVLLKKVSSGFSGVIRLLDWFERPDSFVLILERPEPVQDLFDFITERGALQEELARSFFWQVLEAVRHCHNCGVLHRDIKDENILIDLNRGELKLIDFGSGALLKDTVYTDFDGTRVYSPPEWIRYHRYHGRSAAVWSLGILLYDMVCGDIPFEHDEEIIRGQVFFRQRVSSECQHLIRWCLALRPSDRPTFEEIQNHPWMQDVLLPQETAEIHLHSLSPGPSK

[1] = molecular target: T10, interaction of CDC37-nanoKAZ with 3xFLAG-DYRK1A (Y319F/Y321F) (Homo sapiens, UniProt Q13627, Y319F/Y321F); assay: CDC37-nanoKAZ binding assay (ELISA of the CDC37-nanoKAZ interaction) in 293T cells; type: cell-based
T10 construct: F2A peptide linking to EGFP (2A skipping releases EGFP; a 2A remnant may stay on DYRK1A) (C); expressed in transfected cells; host or cells: 293T cells stably expressing CDC37-nanoKAZ, transiently transfected with pcDNA5/FRT/TO 3xFLAG-DYRK1A (Y319F/Y321F)
Protocol: The cells were then treated with the indicated concentrations of small molecules for one hour. Cell lysates were added to FLAG antibody-coated 96-well plates and luminescence intensities were measured. The amount of bound 3xFLAG-DYRK1A was measured using a HRP-conjugated antibody against FLAG. The relative Imax for CDC37-nanoKAZ was normalized using the amount of bound protein.
Stable cell lines transfected with expression vectors for 3xFLAG-tagged DYRK family kinases and its mutants were lysed in ice-cold HENG buffer (50 mM HEPES-KOH, pH 7.9, 150 mM NaCl, 20 mM Na2MoO4, 2 mM EDTA, 5% Glycerol, 0.5% TritonX-100) containing protease inhibitor cocktail (Nacalai Tesque) on ice. […] The wells were wash three times with ice-cold HENG buffer and then a luminescence assay was performed.
The luminescence activity of the cell lysates was determined using a Centro LB 960 Microplate Luminometer (Berthold Technologies, Bad Wildbad, Germany). A reaction mixture containing bis-coelenterazine (final concentration of 0.1–1 μg/100 μL) in PBS containing 0.02% Tween20 and 20 mM EDTA was injected. The luminescence intensity was recorded at 0.1 s intervals for 10 s or 10 min. The maximum luminescence intensity (Imax), represented in relative luminescence units (rlu), was used in the study.
After measuring the luminescence intensities, the wells were washed three times with HENG buffer, and incubated with HRP-conjugated anti-FLAG antibody diluted with PBS containing […] and 2% fetal bovine serum at 37 °C for one hour. After extensive washing, […] Super Sensitive One Component HRP Microwell Substrate (SurModics, Eden Prairie, MN, USA) was added into the well and the reaction was stopped with sulfuric acid. Absorbance at 450 nm was measured with ARVO X5 (PerkinElmer). The relative amount of protein bound on the well was estimated from the absorbance.
In Supporting Figure S1a, the values of Imax are shown in kinetics plots. In Figs 2c,e, 3c, S1d, S3, and S4, the relative luminescence intensities are shown as the fold-change in the Imax values of the samples relative to Imax with EGFP. In Figs 4, 5a,c and 6c, the relative luminescence intensities were normalized to the amount of the bound 3xFLAG-DYRK1A mutant and calculated as the fold-change relative to the value at 0 μM of the compounds.
Small molecules in our original synthetic chemical library, including unpublished small molecule inhibitors of DYRK1A and its structural derivatives (data not shown), were added to the 96-well plates containing the transfected cells at a final concentration of 4 μM. The cells were then processed as described above.

mRNA coding for DYRK1A = assay: Reverse transcription and quantitative PCR in HEK293 cells; type: cell-based; conditions: CaNDY 2 µM, four days
Protocol: Total RNA of the cells was isolated using Sepasol-RNA I Super G (Nacalai Tesque), and then subjected to reverse transcription with Prime Script RTase (Takara Bio). Realtime PCR was performed with FastStart Universal SYBR Green Master (Rox) (Roche Diagnostics, Basel, Switzerland) using StepOnePlus Real-Time PCR System (Applied Biosystems, Life technologies). The nucleotide sequences of the primers are as follows: the forward primer for DYRK1A, 5′-[…]-3′; the reverse primer for DYRK1A, 5′-[…]-3′; the forward primer for GAPDH, 5′-[…]-3′; and the reverse primer for GAPDH, 5′-[…]-3′.
Targeting the DYRK1A/CDC37 complex
Figure S6. Expression of endogenous DYRK1A mRNA in HEK293 cells treated with
HEK293 cells were cultured in the presence of CaNDY (2 µM) for four days, and subjected to
reverse transcription followed by quantitative PCR analysis. Bar graphs show means ± SD (n =
(1 picture or pasted object on this page, not shown here)

T1 sequence (O14965 whole entry): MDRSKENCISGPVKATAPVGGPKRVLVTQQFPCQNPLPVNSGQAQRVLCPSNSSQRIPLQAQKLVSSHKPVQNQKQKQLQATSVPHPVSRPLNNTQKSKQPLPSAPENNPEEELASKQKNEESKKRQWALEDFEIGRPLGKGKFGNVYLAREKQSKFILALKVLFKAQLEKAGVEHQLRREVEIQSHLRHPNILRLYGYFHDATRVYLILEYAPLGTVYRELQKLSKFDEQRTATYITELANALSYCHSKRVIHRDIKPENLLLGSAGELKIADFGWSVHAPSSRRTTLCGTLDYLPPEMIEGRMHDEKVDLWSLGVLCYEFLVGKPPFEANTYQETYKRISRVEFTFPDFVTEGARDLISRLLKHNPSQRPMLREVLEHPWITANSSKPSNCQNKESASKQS
T1 sequence (Q9ULW0 1-43 partner limits assumed): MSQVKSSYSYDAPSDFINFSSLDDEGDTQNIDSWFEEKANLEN

Compound [H]/N=C1/NC(=O)C(=Cc2ccc3c(c2)CCO3)S1 [CaNDY, (Z)-5-[(2,3-dihydrobenzofuran-5-yl)methylene]-2-iminothiazolidin-4-one] has a remaining activity at 1 µM (AurA/TPX2) of 98.8%, a remaining activity at 1 µM (CHK2) of 97.2% and a remaining activity at 1 µM (CK1ε) of 89.4%. It also gave a remaining activity at 1 µM (NEK1) of 95.6%, a remaining activity at 1 µM (SRPK2) of 96.6% and a remaining activity at 1 µM (FGFR3) of 104%. For the same compound, the remaining activity at 1 µM (FGFR4(N535K)) was 100%, the “%Activity” value (SYK) was 93.7% and the remaining activity at 1 µM (PIM1) was 36.5%. The EC50 ([1]; 293T cells stably expressing CDC37-nanoKAZ, treated one hour, read-out: EC50, decrease of relative luminescence intensity) was 409 nM, the “relative luminescence intensity in library screen” value ([1]; compounds at 4 μM, 253 compounds) was “decreased the luminescence intensity to the lowest level” and the “expression of mRNA coding for DYRK1A” value (mRNA coding for DYRK1A) was “slightly decreased”.
